Measured values as given in patent publication US20080063613A1, “Syndet Bars Having Ultraviolet Radiation Protection” (priority 2004, published 2008).

Assay: physchem
Source text: Log P is a measure of differential solubility of a compound in two solvents. The log ratio of the concentrations of the solute in the solvent is called Log P or the Partition Coefficient. The most well-known of these partition coefficients is based on the solvents Octanol and Water.

For `CCCCC(CC)COC(=O)C(C#N)=C(c1ccccc1)c1ccccc1` (stereo not shown) [Octocrylene], the logP was about 6.9.
